Data published in US20240350508A1, “USE OF EZH2 INHIBITORS FOR THE TREATMENT OF AORTIC VALVE STENOSIS” (INSERM (INSTITUT NATIONAL DE LA SANTÉ ET DE LA RECHERCHE …, priority 2021, published 2024).

Legend:
[1] = system: Human Valvular Interstitial Cells (hVICs); test: human monocytes secretome-induced hVICs calcification (o-cresolphthalein complexone calcium measurement); format: cell-based
Source text: Human aortic valves form AS patients who underwent aortic valve surgical replacement were collected at Rouen University Hospital, starting on May 2 2016, after agreement of The CPP Nord-Ouest I (RCB: 2016-A00137-44). Human Valvular Interstitial Cells (hVICs) were isolated and cultured as already described. (Morvan, Arangalage et al. 2019) Briefly, aortic valve leaflets previously collected and washed in PBS containing antibiotics were cut into pieces and digested with type I collagenase (0.22 U/mg) for 3 hours at 37° C. Digested valves are filters on 70 μm cell strainers to remove undigested valve parts and obtain a homogenous cell suspension resuspended in complete smooth muscle cell basal 2 medium (PromoCell, Heidelberg, Germany) with 10% Fetal Bovine Serum (FBS) Penicillin/Streptomycin (P/S, Sigma-Aldrich Cat #P4333). Cell suspension is then seeded into rat type collagen I (3 mg/ml, Gibco, Cat #A1048301) coated flask and incubated at 37° C., 5% CO2 for several days until reaching cell confluency. At this step hVICs are obtained and cultured in DMEM (Dulbecco's modified Eagle's medium, Gibco, Cat #41966-029) with 10% FBS and P/S until passage 4. […]
(§1) Previously isolated hVICs were treated for 10 days with human monocytes and M1 macrophages CM diluted v/v with DMEM (Gibco, Cat #41966-029) in the presence or not of inorganic […] (Pi) at a final concentration up to 1.9 mM (0.9 mM of […] already present in DMEM). Treatment with conditioned medium was renewed every 2 days and calcium content in each well was measured with the o-cresolphthalein complexone colorimetric method. […]
(§2) Data are obtained from indicated number of hVICs isolated from distinct patients. […] Data are expressed as mean values of control (DMSO (vehicle) treated monocytes or M1 macrophages)±SEM. When indicated, statistical significance was determined by non-parametric Kruskal-Wallis test followed by Dunns post-hoc test using Graphpad Prism 5 software. The use of non-parametric Kruskal-Wallis test was determined depending Shapiro-Wilk normality test data distribution.

[2] = system: Human Valvular Interstitial Cells (hVICs); test: human M1 macrophages secretome-induced hVICs calcification (o-cresolphthalein complexone calcium measurement); format: cell-based; details: M1 macrophages pre-treatment (5 μM, 72 h); n=1 VICs patient in triplicates, CM from n=1 volunteer; FIG. 4
Source text: Human aortic valves form AS patients who underwent aortic valve surgical replacement were collected at Rouen University Hospital, starting on May 2 2016, after agreement of The CPP Nord-Ouest I (RCB: 2016-A00137-44). Human Valvular Interstitial Cells (hVICs) were isolated and cultured as already described. (Morvan, Arangalage et al. 2019) Briefly, aortic valve leaflets previously collected and washed in PBS containing antibiotics were cut into pieces and digested with type I collagenase (0.22 U/mg) for 3 hours at 37° C. […]
as §1
as §2, with “The use of non-parametric Kruskal-Wallis test was determined depending Shapiro-Wilk normality test data distribution.” left out

CC[C@H](C)n1cc(C)c2c(C(=O)NCc3c(C)cc(C)[nH]c3=O)cc(-c3ccc(N4CCNCC4)nc3)cc21 [GSK-126]
CAVD patient monocytes secretome-induced hVICs calcification ([1]; monocytes from CAVD patients pre-treated with 5 μM for 72 h, CM1, hVICs with 1.9 mM Pi for 10 days, vs vehicle (DMSO), FIG. 2): significantly reduced | volunteer monocytes secretome-induced hVICs calcification ([1]; monocytes from volunteers pre-treated with 5 μM for 72 h, CM1, hVICs with 1.9 mM Pi for 10 days, vs vehicle (DMSO), FIG. 1): significantly reduced | volunteer monocytes secretome-induced hVICs calcification 24 h after monocytes pre-treatment ([1]; monocytes from volunteers, 72 h pre-treatment then new conditioned medium for 24 h (CM2) in the absence of inhibitor, 1.9 mM Pi, FIG. 3): the same result was obtained | M1 secretome-induced hVICs calcification [2]: reduced
